According to patent publication US6737383B1, “Herbicidal oxadiazolidines” (priority 1999, dated 2004):

Columns and labels:
bedstraw = test: Test B pre/postemergence bedstraw; type: in vivo, Galium aparine; conditions: for Bedstraw plant response rating: Postemergence; for Plant response rating, Bedstraw: Preemergence
In short: (§1)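 Test chemicals in a non-phytotoxic solvent mixture with surfactant were sprayed preemergence onto planted seeds and postemergence onto plants 2 to 18 cm tall (1- to 4-leaf stage). After twelve to sixteen days in a greenhouse, injury was visually rated against untreated controls from 0 (no effect) to 10 (complete control).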

rice = test: Test B flood test rice; type: in vivo, Oryza sativa
In short: (§2)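 Read-out is a visual response score from 0 (no effect) to 10 (complete control), assigned by comparison with untreated controls. Treatment was applied at the 2-leaf stage, and plants stayed in the greenhouse for twelve to sixteen days before scoring.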

corn = test: Test B pre/postemergence corn; type: in vivo, Zea mays; conditions: for Corn plant response rating: Postemergence; for Plant response rating, Corn: Preemergence
In short: as §1

morningglory = test: Test B pre/postemergence morningglory; type: in vivo, Ipomoea hederacea; conditions: for Morningglory plant response rating: Postemergence; for Plant response rating, Morningglory: Preemergence
In short: as §1

surinam grass = test: Test B pre/postemergence surinam grass; type: in vivo, Brachiaria decumbens
In short: as §1

velvetleaf = test: Test B pre/postemergence velvetleaf; type: in vivo, Abutilon theophrasti
In short: as §1

rape = test: Test B pre/postemergence rape; type: in vivo, Brassica napus
In short: as §1

duck salad = test: Test B flood test duck salad; type: in vivo, Heteranthera limosa
In short: as §2

pigweed = test: Test B pre/postemergence pigweed; type: in vivo, Amaranthus retroflexus
In short: as §1

giant foxtail = test: Test B pre/postemergence giant foxtail; type: in vivo, Setaria faberii
In short: as §1

sugar beet = test: Test B pre/postemergence sugar beet; type: in vivo, Beta vulgaris
In short: as §1

bamyardgrass = test: Test B flood test barnyardgrass; type: in vivo, Echinochloa crus-galli
In short: as §2

blackgrass = test: Test B pre/postemergence blackgrass; type: in vivo, Alopecurus myosuroides
In short: as §1

purple nutsedge = test: Test B pre/postemergence purple nutsedge; type: in vivo, Cyperus rotundus
In short: as §1

cocklebur = test: Test B pre/postemergence cocklebur; type: in vivo, Xanthium strumarium; conditions: for Cocklebur plant response rating: Postemergence; for Plant response rating, Cocklebur: Preemergence
In short: as §1

[1] = Rate 62 g/ha, scale 0 to 10, 0 is no effect, 10 is complete control
[2] = Rate 250 g/ha, scale 0 to 10, 0 no effect, 10 complete control
[3] = Rate 125 g/ha, scale 0 to 10 (0 no effect, 10 complete control)
[4] = Rate 250 g/ha, scale of 0 to 10 where 0 is no effect and 10 is complete control
[5] = Rate 125 g/ha, scale 0 to 10, 0 no effect, 10 complete control
[6] = Postemergence, Rate 62 g/ha, scale 0 to 10, 0 is no effect, 10 is complete control
[7] = Rate 125 g/ha, Postemergence section (flood test species), scale 0 to 10, 0 no effect, 10 complete control
[8] = Rate 500 g/ha, listed under Postemergence (flood test species), scale 0 to 10, 0 no effect, 10 complete control
[9] = flood test, listed under Postemergence, Rate 250 g/ha, scale 0 to 10, 0 no effect, 10 complete control
[10] = Rate 500 g/ha, scale 0 to 10, 0 no effect, 10 complete control
[11] = Postemergence, Rate 250 g/ha, scale 0 to 10, 0 no effect, 10 complete control
[12] = Preemergence, Rate 62 g/ha, scale 0 to 10, 0 is no effect, 10 is complete control
[13] = Preemergence, Rate 125 g/ha, scale 0 to 10 (0 no effect, 10 complete control)
[14] = Preemergence, Rate 250 g/ha, scale of 0 to 10 where 0 is no effect and 10 is complete control
[15] = Preemergence, Rate 500 g/ha, scale 0 (no effect) to 10 (complete control)
[16] = Rate 125 g/ha, Postemergence, scale 0 to 10, 0 no effect, 10 complete control
[17] = Rate 500 g/ha, Postemergence, scale 0 to 10, 0 no effect, 10 complete control

Question: How did the “Bedstraw plant response rating” value (bedstraw; [1]) turn out when `CCc1cccc(C)c1-n1c(=O)on(C(=O)N(c2ccc(F)cc2)C(C)C)c1=O` [Compound 52] was run?
Answer: 1

Question: What about the “Bedstraw plant response rating” value (bedstraw; [2]) of the same molecule?
Answer: 8

Question: And the “Plant response rating, Bedstraw” value (bedstraw; [1])?
Answer: 0

Question: What about the “Plant response rating, Bedstraw” value (bedstraw; [3]) of the same molecule?
Answer: 0

Question: What about the “Plant response rating, Bedstraw” value (bedstraw; [4]) of the same molecule?
Answer: 0

Question: And the “Bedstraw plant response rating” value (bedstraw; [5])?
Answer: 5

Question: And the “Rice plant response rating” value (rice; [6])?
Answer: 0

Question: And the “Rice plant response rating” value (rice; [7])?
Answer: 0

Question: And the “Rice plant response rating” value (rice; [8])?
Answer: 0

Question: What about the “Rice plant response rating” value (rice; [9]) of the same molecule?
Answer: 0

Question: What about the “Corn plant response rating” value (corn; [1]) of the same molecule?
Answer: 0

Question: And the “Corn plant response rating” value (corn; [2])?
Answer: 3

Question: And the “Plant response rating, Corn” value (corn; [1])?
Answer: 0

Question: What about the “Plant response rating, Corn” value (corn; [3]) of the same molecule?
Answer: 0

Question: And the “Plant response rating, Corn” value (corn; [4])?
Answer: 0

Question: What about the “Corn plant response rating” value (corn; [5]) of the same molecule?
Answer: 0

Question: What about the “Corn plant response rating” value (corn; [10]) of the same molecule?
Answer: 4

Question: And the “Morningglory plant response rating” value (morningglory; [1])?
Answer: 1

Question: And the “Morningglory plant response rating” value (morningglory; [2])?
Answer: 1

Question: What about the “Plant response rating, Morningglory” value (morningglory; [1]) of the same molecule?
Answer: 0

Question: And the “Plant response rating, Morningglory” value (morningglory; [3])?
Answer: 0

Question: What about the “Plant response rating, Morningglory” value (morningglory; [4]) of the same molecule?
Answer: 0

Question: What about the “Morningglory plant response rating” value (morningglory; [5]) of the same molecule?
Answer: 1

Question: What about the “Morningglory plant response rating” value (morningglory; [10]) of the same molecule?
Answer: 1

Question: What about the “B. signalgrass plant response rating” value (surinam grass; [6]) of the same molecule?
Answer: 0

Question: And the “B. signalgrass plant response rating” value (surinam grass; [11])?
Answer: 0

Question: What about the “Plant response rating, B. signalgrass” value (surinam grass; [12]) of the same molecule?
Answer: 0

Question: What about the “Plant response rating, B. signalgrass” value (surinam grass; [13]) of the same molecule?
Answer: 0

Question: What about the “Plant response rating, B. signalgrass” value (surinam grass; [14]) of the same molecule?
Answer: 0

Question: What about the “B. signalgrass plant response rating” value (surinam grass; [15]) of the same molecule?
Answer: 6

Question: What about the “B. signalgrass plant response rating” value (surinam grass; [16]) of the same molecule?
Answer: 0

Question: And the “B. signalgrass plant response rating” value (surinam grass; Rate 500 g/ha, Postemergence, scale of 0 to 10 where 0 is no effect and 10 is complete control)?
Answer: 1

Question: And the “Velvetleaf plant response rating” value (velvetleaf; [6])?
Answer: 0

Question: And the “Velvetleaf plant response rating” value (velvetleaf; [11])?
Answer: 0

Question: And the “Plant response rating, Velvetleaf” value (velvetleaf; [12])?
Answer: 0

Question: And the “Plant response rating, Velvetleaf” value (velvetleaf; [13])?
Answer: 0

Question: What about the “Plant response rating, Velvetleaf” value (velvetleaf; [14]) of the same molecule?
Answer: 0

Question: What about the “Velvetleaf plant response rating” value (velvetleaf; [15]) of the same molecule?
Answer: 0

Question: What about the “Velvetleaf plant response rating” value (velvetleaf; [16]) of the same molecule?
Answer: 0

Question: And the “Velvetleaf plant response rating” value (velvetleaf; [17])?
Answer: 0

Question: What about the “Rape plant response rating” value (rape; [6]) of the same molecule?
Answer: 0

Question: What about the “Rape plant response rating” value (rape; [11]) of the same molecule?
Answer: 0

Question: What about the “Plant response rating, Rape” value (rape; [12]) of the same molecule?
Answer: 0

Question: What about the “Plant response rating, Rape” value (rape; [13]) of the same molecule?
Answer: 0

Question: And the “Plant response rating, Rape” value (rape; [14])?
Answer: 0

Question: And the “Rape plant response rating” value (rape; [15])?
Answer: 0

Question: And the “Rape plant response rating” value (rape; [16])?
Answer: 0

Question: What about the “Rape plant response rating” value (rape; [17]) of the same molecule?
Answer: 0

Question: What about the “Ducksalad plant response rating” value (duck salad; [6]) of the same molecule?
Answer: 0

Question: What about the “Ducksalad plant response rating” value (duck salad; [7]) of the same molecule?
Answer: 0

Question: What about the “Ducksalad plant response rating” value (duck salad; [8]) of the same molecule?
Answer: 0

Question: And the “Ducksalad plant response rating” value (duck salad; [9])?
Answer: 0

Question: What about the “Redroot pigweed plant response rating” value (pigweed; [6]) of the same molecule?
Answer: 0

Question: What about the “Redroot pigweed plant response rating” value (pigweed; [11]) of the same molecule?
Answer: 0

Question: What about the “Plant response rating, Redroot pigweed” value (pigweed; [12]) of the same molecule?
Answer: 0

Question: And the “Plant response rating, Redroot pigweed” value (pigweed; [13])?
Answer: 0

Question: And the “Plant response rating, Redroot pigweed” value (pigweed; [14])?
Answer: 1

Question: And the “Redroot pigweed plant response rating” value (pigweed; [15])?
Answer: 6

Question: What about the “Redroot pigweed plant response rating” value (pigweed; [16]) of the same molecule?
Answer: 0

Question: And the “Redroot pigweed plant response rating” value (pigweed; [17])?
Answer: 0

Question: What about the “Giant foxtail plant response rating” value (giant foxtail; [6]) of the same molecule?
Answer: 0

Question: And the “Giant foxtail plant response rating” value (giant foxtail; [11])?
Answer: 3

Question: And the “Plant response rating, Giant foxtail” value (giant foxtail; [12])?
Answer: 3

Question: What about the “Plant response rating, Giant foxtail” value (giant foxtail; [13]) of the same molecule?
Answer: 5

Question: What about the “Plant response rating, Giant foxtail” value (giant foxtail; [14]) of the same molecule?
Answer: 7

Question: What about the “Giant foxtail plant response rating” value (giant foxtail; [15]) of the same molecule?
Answer: 10

Question: What about the “Giant foxtail plant response rating” value (giant foxtail; [16]) of the same molecule?
Answer: 3

Question: And the “Giant foxtail plant response rating” value (giant foxtail; [17])?
Answer: 4

Question: And the “Sugarbeets plant response rating” value (sugar beet; [6])?
Answer: 0

Question: What about the “Sugarbeets plant response rating” value (sugar beet; [11]) of the same molecule?
Answer: 0

Question: And the “Plant response rating, Sugarbeets” value (sugar beet; [12])?
Answer: 0

Question: What about the “Plant response rating, Sugarbeets” value (sugar beet; [13]) of the same molecule?
Answer: 0

Question: What about the “Plant response rating, Sugarbeets” value (sugar beet; [14]) of the same molecule?
Answer: 0

Question: And the “Sugarbeets plant response rating” value (sugar beet; [15])?
Answer: 0

Question: And the “Sugarbeets plant response rating” value (sugar beet; [16])?
Answer: 0

Question: And the “Sugarbeets plant response rating” value (sugar beet; [17])?
Answer: 0

Question: What about the “Barnyardgrass plant response rating” value (bamyardgrass; [6]) of the same molecule?
Answer: 0

Question: And the “Barnyardgrass plant response rating” value (bamyardgrass; [7])?
Answer: 0

Question: And the “Barnyardgrass plant response rating” value (bamyardgrass; [8])?
Answer: 0

Question: And the “Barnyardgrass plant response rating” value (bamyardgrass; [9])?
Answer: 0

Question: What about the “Blackgrass plant response rating” value (blackgrass; [6]) of the same molecule?
Answer: 0

Question: What about the “Blackgrass plant response rating” value (blackgrass; [11]) of the same molecule?
Answer: 0

Question: What about the “Plant response rating, Blackgrass” value (blackgrass; [12]) of the same molecule?
Answer: 0

Question: And the “Plant response rating, Blackgrass” value (blackgrass; [13])?
Answer: 0

Question: And the “Plant response rating, Blackgrass” value (blackgrass; [14])?
Answer: 3

Question: And the “Blackgrass plant response rating” value (blackgrass; [15])?
Answer: 4

Question: And the “Blackgrass plant response rating” value (blackgrass; [16])?
Answer: 0

Question: What about the “Blackgrass plant response rating” value (blackgrass; [17]) of the same molecule?
Answer: 0

Question: And the “Nutsedge plant response rating” value (purple nutsedge; [6])?
Answer: 0

Question: And the “Nutsedge plant response rating” value (purple nutsedge; [11])?
Answer: 0

Question: What about the “Plant response rating, Nutsedge” value (purple nutsedge; [12]) of the same molecule?
Answer: 0

Question: What about the “Plant response rating, Nutsedge” value (purple nutsedge; [13]) of the same molecule?
Answer: 0

Question: What about the “Plant response rating, Nutsedge” value (purple nutsedge; [14]) of the same molecule?
Answer: 0

Question: And the “Nutsedge plant response rating” value (purple nutsedge; [15])?
Answer: 0

Question: What about the “Nutsedge plant response rating” value (purple nutsedge; [16]) of the same molecule?
Answer: 0

Question: And the “Nutsedge plant response rating” value (purple nutsedge; [17])?
Answer: 0

Question: What about the “Cocklebur plant response rating” value (cocklebur; [1]) of the same molecule?
Answer: 0

Question: What about the “Cocklebur plant response rating” value (cocklebur; [2]) of the same molecule?
Answer: 0

Question: And the “Plant response rating, Cocklebur” value (cocklebur; [1])?
Answer: 0

Question: And the “Plant response rating, Cocklebur” value (cocklebur; [3])?
Answer: 0

Question: And the “Plant response rating, Cocklebur” value (cocklebur; [4])?
Answer: 0

Question: What about the “Cocklebur plant response rating” value (cocklebur; [5]) of the same molecule?
Answer: 0

Question: And the “Cocklebur plant response rating” value (cocklebur; [10])?
Answer: 0
